From patent publication US11008340B2, “Modulators of ROR-gamma” (Vitae Pharmaceuticals, LLC, priority 2015, dated 2021) come the findings set out here.

Structures are written as SMILES. Read-outs that look alike come from different tables or passages of the source. Where only a bound is given, the exact number is not on record here.

The target of test [1] is T1, recombinant RORγ Ligand Binding Domain (LBD) protein (Homo sapiens, UniProt P51449).
T1 construct: 6×His; GST
T1 sequence (P51449 269-508 limits assumed): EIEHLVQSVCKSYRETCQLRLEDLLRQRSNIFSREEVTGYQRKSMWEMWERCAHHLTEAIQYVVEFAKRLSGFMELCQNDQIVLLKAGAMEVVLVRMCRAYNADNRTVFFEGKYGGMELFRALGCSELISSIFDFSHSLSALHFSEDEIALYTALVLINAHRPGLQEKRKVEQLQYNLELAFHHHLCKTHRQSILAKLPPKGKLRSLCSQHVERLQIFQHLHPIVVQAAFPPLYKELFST
Put plainly: Radio-Ligand RORγ Binding Assay (Assay 1). As to conditions: radio-ligand competition, RORγ LBD, read-out: Avg ROR Bind Ki. In a few lines: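 Cell-free SPA competition between compound and 25-hydroxy[26,27-^3H]-cholesterol for 6×His-GST-tagged RORγ LBD in 50 mM HEPES pH 7.4 with NaCl, MgCl2, glycerol, CHAPS, octylglucoside and DTT. Mix was shaken 20 min, held 10 min at rt, then read after poly-Lys YSi beads. IC50 came from a four-parameter fit, and Ki from radioligand KD.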

Test [2] concerns the target T2, full-length RORγt in Jurkat cells (Homo sapiens, UniProt P51449).
T2 construct: transcriptional activity of the full-length RORγt in Jurkat cells; host or cells: Jurkat cells (ATCC TIB-152)
T2 sequence (P51449 1-497 isoform P51449-2): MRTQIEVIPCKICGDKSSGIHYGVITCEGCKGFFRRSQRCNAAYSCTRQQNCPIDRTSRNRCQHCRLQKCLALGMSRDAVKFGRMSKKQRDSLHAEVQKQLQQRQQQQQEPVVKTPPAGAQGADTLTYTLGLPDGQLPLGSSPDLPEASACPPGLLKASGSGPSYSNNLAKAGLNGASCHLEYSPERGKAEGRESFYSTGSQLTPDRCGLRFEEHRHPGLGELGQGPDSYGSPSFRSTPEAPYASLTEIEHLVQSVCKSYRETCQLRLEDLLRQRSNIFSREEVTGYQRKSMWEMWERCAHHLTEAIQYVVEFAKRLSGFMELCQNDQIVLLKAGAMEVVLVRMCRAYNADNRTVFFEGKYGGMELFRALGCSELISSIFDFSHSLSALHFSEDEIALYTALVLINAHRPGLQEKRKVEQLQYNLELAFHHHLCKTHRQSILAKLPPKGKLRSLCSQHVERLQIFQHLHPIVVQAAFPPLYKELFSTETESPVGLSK
Put plainly: RORγt 5×RORE Assay in Jurkat Cells (Assay 2). It is filed as cell-based. The note with it: 5×RORE luciferase reporter. The method in brief: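 Inverse agonism measured as reduced NanoGlo signal from secreted NanoLuc in conditioned supernatant after 16-18 hrs compound exposure (37° C, 0.1% DMSO). Reporter: 5×RORE-driven secNluc, co-transfected with full-length RORγt into Jurkat cells cultured in delipidated-FBS, phenol-red-free RPMI.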
On the technique in general: A reporter such as luciferase makes a cellular process visible.

The mark [3] stands for this setting: 25-hydroxy [26,27-3H]-cholesterol.
Setting [4] is: Table 20, read-out: Avg ROR γt/5x IC5.
Where [5] appears, read: head without unit (Tables 15, 17).
The mark [6] stands for this setting: head without unit (Tables 15, 17), read-out: Avg ROR γt/5x IC50.

For orientation: Ki means the dissociation constant of the complex between target and ligand, obtained from inhibition or displacement. Turning to `CCS(=O)(=O)c1ccc(CNC(=O)c2ccc3c(c2)CN(Cc2ccc(F)cc2)C[C@@H]3C(C)C)cc1` (single isomer, unassigned) [Hy7-27.2], in test [1] (setting [3]), the inhibitory constant (Ki) was under 100 nM. In test [2] (setting [4]), the IC50 was under 100 nM.

As for `CCS(=O)(=O)c1ccc(CNC(=O)c2ccc3c(c2)CN(c2nccc(C(F)(F)F)n2)C[C@H]3C(C)C)cc1` (single isomer, unassigned) [Hy7-14.1], in test [1] (setting [3]), the Ki is under 100 nM. Further, in test [2] (setting [4]), the IC50 is over 1000 nM.

On to `CCS(=O)(=O)c1ccc(CNC(=O)c2ccc3c(C4CC4)n(C[C@H]4CC[C@H](C(F)(F)F)CC4)nc3c2)cc1` [Hy3A-2, 3-cyclopropyl-N-(4-(ethylsulfonyl)benzyl)-2-(((1r,4r)-4-(trifluoromethyl)cyclohexyl)methyl)-2H-indazole-6-carboxamide], for which the Ki in test [1] (setting [3]) was under 100 nM. For the same molecule, the IC50 in test [2] (read-out: Avg ROR γt/5x IC50) was under 100 nM.

Consider `CCS(=O)(=O)c1ccc(C(C)NC(=O)c2ccc3c(c2)CCN(Cc2cnc(C)cn2)C3C(C)C)cc1` (racemic) [Hy2A-18, N-(1-(4-(ethylsulfonyl)phenyl)ethyl)-1-isopropyl-2-((5-methylpyrazin-2-yl)methyl)-1,2,3,4-tetrahydroisoquinoline-6-carboxamide], for which the inhibitory constant (Ki) in test [1] (setting [3]) was under 100 nM. Moreover, the IC50 in test [2] (read-out: Avg ROR γt/5x IC50) fell in the range of 100 to 1000 nM.

In the case of `CCS(=O)(=O)c1ccc(CNC(=O)c2ccc3c(c2)C(C)(C)CN(Cc2ccc(C#N)cc2)C3C(C)C)cc1` (single isomer, unassigned) [Hy2A-23.1], in test [1] (setting [3]), the Ki is under 100 nM. For the same molecule, the IC50 in test [2] (read-out: Avg ROR γt/5x IC50) was under 100 nM.

Turning to `CC[C@@H]1CN(c2ccc(C(F)(F)F)cc2)Cc2cc(C(=O)NCc3ccc(S(=O)(=O)CC)cc3)ccc21` (single isomer, unassigned) [Hy7-7.1], the Ki in test [1] (setting [3]) is under 100 nM. Further, in test [2] (setting [4]), the IC50 was under 100 nM.

Turning to `CCS(=O)(=O)c1ccc(CNC(=O)c2ccc3c(c2)CCN(Cc2ccc(Cl)cc2)[C@@H]3C(C)C)cc1` (single isomer, unassigned) [Hy2A-20.2], the Ki in test [1] (setting [3]) is under 100 nM. In addition, the IC50 in test [2] (read-out: Avg ROR γt/5x IC50) was in the range of 100 to 1000 nM.

For the molecule `CCS(=O)(=O)c1ccc(CNC(=O)c2ccc3c(c2)CN(c2ncc(C(F)(F)F)cn2)C[C@H]3C(F)(F)F)cc1` (single isomer, unassigned) [Hy7-36.1], the Ki in test [1] (setting [3]) was under 100 nM. Also, in test [2] (setting [4]), the IC50 was under 100 nM.

On to `CC[C@@H]1CN(C2CCC(F)(F)CC2)Cc2cc(C(=O)N[C@@H](CO)c3ccc(S(=O)(=O)CC)cc3)ccc21` (single isomer, unassigned) [Hy7-32.1], for which the inhibition constant Ki in test [1] (setting [3]) is under 100 nM. Also, in test [2] (setting [4]), the IC50 is over 1000 nM.

As to `CCOC(=O)c1cnc(N2CCc3cc(C(=O)NCc4ccc(S(=O)(=O)CC)cc4)ccc3[C@@H]2C(C)C)nc1C(F)(F)F` (single isomer, unassigned) [Hy2A-5.1], the inhibition constant Ki in test [1] (setting [3]) was under 100 nM. Moreover, the IC50 in test [2] (read-out: Avg ROR γt/5x IC50) lay in the range of 100 to 1000 nM.

With `CCS(=O)(=O)c1ccc(CNC(=O)c2ccc3c(c2)CN(c2ncc(Cl)cn2)C[C@H]3C(C)C)cc1` (single isomer, unassigned) [Hy7-3.1], the Ki in test [1] (setting [3]) is under 100 nM. Besides, in test [2] (setting [4]), the IC50 lay within 100 to 1000 nM.

Take `CCS(=O)(=O)c1ccc(CNC(=O)c2ccc3c(c2)CCN(c2ncc(C(F)(F)F)cn2)C3C(C)C)cc1` (centres unmarked) [Hy2A-2, N-(4-(ethylsulfonyl)benzyl)-1-isopropyl-2-(5-(trifluoromethyl)pyrimidin-2-yl)-1,2,3,4-tetrahydroisoquinoline-6-carboxamide]: the Ki in test [1] (setting [3]) lay in the range of 100 to 1000 nM. Besides, in test [2] (read-out: Avg ROR γt/5x IC50), the IC50 is over 1000 nM.

Consider `CCS(=O)(=O)c1ccc(CNC(=O)c2cnc3c(c2)CCN(C[C@H]2CC[C@H](C(F)(F)F)CC2)[C@H]3C(C)C)nc1` (single isomer, unassigned) [Hy2B-10.1], for which the Ki in test [1] (setting [5]) was in the range of 100 to 1000 nM. Also, the IC50 in test [2] (setting [6]) lay in the range of 100 to 1000 nM.

For the molecule `CCS(=O)(=O)c1ccc(CNC(=O)c2ccc3c(c2)CN(Cc2ccc(C#N)cc2)C[C@@H]3C(C)C)cc1` (single isomer, unassigned) [Hy7-28.2], in test [1] (setting [3]), the Ki was under 100 nM. Further, the IC50 in test [2] (setting [4]) was under 100 nM.

Turning to `CCOc1cnc(N2Cc3cc(C(=O)NCc4ccc(S(=O)(=O)CC)cc4)ccc3[C@H](C(C)C)C2)nc1` (single isomer, unassigned) [Hy7-5.1], in test [1] (setting [3]), the Ki is under 100 nM. For the same molecule, the IC50 in test [2] (setting [4]) was 100 to 1000 nM.

`CC[C@@H]1CN(c2ccc(C(F)(F)F)cc2)C(=O)c2cc(C(=O)NCc3ccc(S(=O)(=O)CC)cc3)ccc21` (single isomer, unassigned) [Hy7-12.1]: the Ki in test [1] (setting [3]) is under 100 nM. Besides, the IC50 in test [2] (setting [4]) lay within 100 to 1000 nM.

On to `CCS(=O)(=O)c1ccc(CNC(=O)c2ccc3c(c2)CCN(Cc2ccc(C#N)cn2)[C@H]3C(C)C)cc1` (single isomer, unassigned) [Hy2A-16.1], for which, in test [1] (setting [3]), the Ki is under 100 nM. The IC50 in test [2] (read-out: Avg ROR γt/5x IC50) was under 100 nM.

`CCS(=O)(=O)c1ccc(CNC(=O)c2ccc3c(c2)CN(Cc2ccc(F)cc2)C[C@H]3C(C)C)cc1` (single isomer, unassigned) [Hy7-27.1]: the Ki in test [1] (setting [3]) is under 100 nM. Further, the IC50 in test [2] (setting [4]) was over 1000 nM.

Regarding `CC[C@@H]1CN(c2ncc(-c3ncco3)cn2)Cc2cc(C(=O)NCc3ccc(S(=O)(=O)CC)cc3)ccc21` (single isomer, unassigned) [Hy7-31.1], the Ki in test [1] (setting [3]) is under 100 nM. Moreover, in test [2] (setting [4]), the IC50 is under 100 nM.

Consider `CCS(=O)(=O)c1ccc([C@H](CO)NC(=O)c2ccc3c(OC[C@H]4CC[C@H](C(F)(F)F)CC4)nccc3c2)cc1` [Hy1A-8, N-((R)-1-(4-(ethylsulfonyl)phenyl)-2-hydroxyethyl)-1-(((1r,4R)-4-(trifluoromethyl)cyclohexyl)methoxy)isoquinoline-6-carboxamide], for which the Ki in test [1] (setting [3]) was under 100 nM. The IC50 in test [2] (read-out: Avg ROR γt/5x IC50) lay in the range of 100 to 1000 nM.

As for `CCC1CN(C2CCC(C(F)(F)F)CC2)Cc2cc(C(=O)NC(CO)c3ccc(S(=O)(=O)CC)cc3)ccc21` (single isomer, unassigned) [Hy7-35.1], the Ki in test [1] (setting [3]) was under 100 nM. In test [2] (setting [4]), the IC50 was under 100 nM.

Turning to `CCS(=O)(=O)c1ccc([C@H](CO)NC(=O)c2cc3ccnc(OC[C@H]4CC[C@H](C(F)(F)F)CC4)c3n2C)cc1` [Hy4-2, N-((R)-1-(4-(ethylsulfonyl)phenyl)-2-hydroxyethyl)-1-methyl-7-(((1r,4R)-4-(trifluoromethyl)cyclohexyl)methoxy)-1H-pyrrolo[2,3-c]pyridine-2-carboxamide], the Ki in test [1] (setting [5]) was under 100 nM. Besides, the IC50 in test [2] (setting [6]) is under 100 nM.

`CCS(=O)(=O)c1ccc([C@H](CO)NC(=O)c2ccc3c(OC4CCN(CC(F)(F)F)CC4)nc(C)cc3c2)cc1` [Hy1A-17, (R)-N-(1-(4-(ethylsulfonyl)phenyl)-2-hydroxyethyl)-3-methyl-1-((1-(2,2,2-trifluoroethyl)piperidin-4-yl)oxy)isoquinoline-6-carboxamide]: the Ki in test [1] (setting [3]) is under 100 nM. In addition, the IC50 in test [2] (read-out: Avg ROR γt/5x IC50) was over 1000 nM.

With `CCS(=O)(=O)c1ccc(CNC(=O)c2ccc3c(c2)CCN(CC2CCN(C(=O)OC)CC2)[C@H]3C(C)C)cc1` [Hy2A-24, methyl (S)-4-((6-((4-(ethylsulfonyl)benzyl)carbamoyl)-1-isopropyl-3,4-dihydroisoquinolin-2(1H)-yl)methyl)piperidine-1-carboxylate], the inhibition constant Ki in test [1] (setting [3]) was 100 to 1000 nM. For the same molecule, the IC50 in test [2] (read-out: Avg ROR γt/5x IC50) is 100 to 1000 nM.

On to `CCS(=O)(=O)c1ccc([C@H](CO)NC(=O)c2ccc3c(OCC4CCOCC4)nc(C)cc3c2)cc1` [Hy1A-1, (R)-N-(1-(4-(ethylsulfonyl)phenyl)-2-hydroxyethyl)-3-methyl-1-((tetrahydro-2H-pyran-4-yl)methoxy)isoquinoline-6-carboxamide], for which the Ki in test [1] (setting [3]) is under 100 nM. Moreover, the IC50 in test [2] (read-out: Avg ROR γt/5x IC50) was over 1000 nM.
